Assay: Time-course of drug levels in adult and embryonic mouse plasma, brain and liver after a single subcutaneous injection (LC-MS/MS)
Conditions: mouse, 10 mg/kg
[1] = female, brain (adult), subcutaneous
[2] = female, liver (adult), subcutaneous

Question: What does the source list for `O=C1CC[C@@]2(O)[C@H]3Cc4ccc(O)c5c4[C@@]2(CCN3CC2CC2)[C@H]1O5` [Naltrexone, naltrexone, reference compound]?
Answer: concentration at 20 min [1]: 3230 ng/g; concentration at 45 min [1]: 1470 ng/g; concentration at 2 h [1]: 250 ng/g; concentration at 4 h [1]: 18 ng/g; concentration at 20 min (female, in vivo): 1880 ng/g; concentration at 45 min (female, in vivo): 620 ng/g; concentration at 2 h (female, in vivo): 130 ng/g; concentration at 4 h (female, in vivo): 4 ng/g; concentration at 20 min [2]: 2100 ng/g; concentration at 45 min [2]: 1390 ng/g; concentration at 2 h [2]: 360 ng/g; concentration at 4 h [2]: 32 ng/g; concentration at 45 min (embryo brain, subcutaneous): 2610 ng/g; concentration at 2 h (embryo brain, subcutaneous): 500 ng/g; concentration at 45 min (embryo liver, subcutaneous): 3190 ng/g; concentration at 2 h (embryo liver, subcutaneous): 620 ng/g

Source: patent US12161641B2, “Treatments and prevention of opioid neonatal abstinence syndrome” (Ohio State Innovation Foundation, priority 2016, dated 2024)
